Assay results published in PubChem BioAssay AID256 (DTP/NCI, 2004).
Values joined by “and” are separate entries in the source; they are usually repeats but may differ in a detail not shown here. Equal values may be shown once. Toxic doses and inconclusive results are not listed.

System: CD2F1 mice, L1210 leukemia ip, survival T/C
Test: NCI In Vivo Anticancer Drug Screen. Data for tumor model L1210 Leukemia (intraperitoneal) in CD2F1 (CDF1) mice
Settings: higher = longer survival
Summary of the method: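 Ratio T/C, where T is the treated-group value and C the vehicle-dosed control value, from mice implanted with a transplantable tumor.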

[1] = endpoint: mean survival time, dose: 50.0 mg/kg/injection, schedule: Q01DX009 (ip), vehicle: saline
[2] = endpoint: mean survival time, dose: 100.0 mg/kg/injection, schedule: Q01DX001 (ip), vehicle: saline
[3] = endpoint: mean survival time, dose: 400.0 mg/kg/injection, schedule: Q01DX009 (ip), vehicle: saline
[4] = endpoint: mean survival time, dose: 50.0 mg/kg/injection, schedule: Q01DX009 (ip), vehicle: saline with Tween-80
[5] = endpoint: mean survival time, dose: 100.0 mg/kg/injection, schedule: Q01DX009 (ip), vehicle: saline with Tween-80
[6] = endpoint: mean survival time, dose: 100.0 mg/kg/injection, schedule: Q01DX009 (ip), vehicle: saline
[7] = endpoint: mean survival time, dose: 100.0 mg/kg/injection, schedule: Q04DX003 (ip), vehicle: saline
[8] = endpoint: mean survival time, dose: 200.0 mg/kg/injection, schedule: Q04DX003 (ip), vehicle: saline
[9] = endpoint: mean survival time, dose: 200.0 mg/kg/injection, schedule: Q01DX009 (ip), vehicle: saline with Tween-80

COC(OC(CO)C(O)S(=O)(=O)O)C(O)S(=O)(=O)O (stereo not drawn)
T/C (endpoint: mean survival time, dose: 50.0 mg/kg/injection, schedule: Q01DX001 (ip), vehicle: saline): 103 % of control
T/C [1]: 124 % of control
T/C (endpoint: mean survival time, dose: 50.0 mg/kg/injection, schedule: Q01DX009 (sc), vehicle: saline): 104 % of control
T/C (endpoint: mean survival time, dose: 50.0 mg/kg/injection, schedule: Q03HX016 (ip), vehicle: saline): 115 % of control
T/C [2]: 118 % of control
T/C (endpoint: mean survival time, dose: 100.0 mg/kg/injection, schedule: Q01DX009 (oral), vehicle: saline): 105 % of control
T/C (endpoint: mean survival time, dose: 100.0 mg/kg/injection, schedule: Q01DX009 (sc), vehicle: saline): 101 % of control
T/C (endpoint: mean survival time, dose: 100.0 mg/kg/injection, schedule: Q03HX008 (ip), vehicle: saline): 160 % of control
T/C (endpoint: mean survival time, dose: 100.0 mg/kg/injection, schedule: Q03HX016 (ip), vehicle: saline): 153 % of control
T/C (endpoint: mean survival time, dose: 100.0 mg/kg/injection, schedule: Q08DX002 (ip), vehicle: saline): 109 % of control
T/C (endpoint: mean survival time, dose: 200.0 mg/kg/injection, schedule: Q01DX009 (oral), vehicle: saline): 92 % of control
T/C (endpoint: mean survival time, dose: 200.0 mg/kg/injection, schedule: Q01DX009 (sc), vehicle: saline): 101 % of control
T/C (endpoint: mean survival time, dose: 200.0 mg/kg/injection, schedule: Q08DX002 (ip), vehicle: saline): 120 % of control
T/C [3]: 168 % of control
T/C (endpoint: mean survival time, dose: 400.0 mg/kg/injection, schedule: Q01DX009 (oral), vehicle: saline): 94 % of control
T/C (endpoint: mean survival time, dose: 400.0 mg/kg/injection, schedule: Q01DX009 (sc), vehicle: saline): 106 % of control
T/C (endpoint: mean survival time, dose: 800.0 mg/kg/injection, schedule: Q01DX009 (oral), vehicle: saline): 94 % of control
T/C (endpoint: mean survival time, dose: 800.0 mg/kg/injection, schedule: Q04DX003 (ip), vehicle: saline): 178 % of control

CCCC(CN(C)C)C(=O)c1ccccc1 (stereo not drawn)
T/C (endpoint: mean survival time, dose: 100.0 mg/kg/injection, schedule: Q04DX002 (ip), vehicle: saline with Tween-80): 86 % of control

CCN(CC)C(=S)SC
T/C (endpoint: mean survival time, dose: 75.0 mg/kg/injection, schedule: Q01DX001 (ip), vehicle: saline): 104 % of control
T/C (endpoint: mean survival time, dose: 150.0 mg/kg/injection, schedule: Q01DX001 (ip), vehicle: saline): 106 % of control

CCOC(=O)N(N=O)c1ccc2c(c1)Cc1cc([N+](=O)[O-])ccc1-2
T/C (endpoint: mean survival time, dose: 100.0 mg/kg/injection, schedule: Q01DX001 (ip), vehicle: carboxymethylcellulose (CMC)): 105 % of control
T/C (endpoint: mean survival time, dose: 200.0 mg/kg/injection, schedule: Q01DX001 (ip), vehicle: carboxymethylcellulose (CMC)): 105 % of control
T/C (endpoint: mean survival time, dose: 400.0 mg/kg/injection, schedule: Q01DX001 (ip), vehicle: carboxymethylcellulose (CMC)): 97 % of control

N=C(OC1CCCCC1)C(Cl)(Cl)Cl
T/C [4]: 92 % of control
T/C [5]: 88 % of control

OCC1OC(n2cnc3c(Cl)ncnc32)C(O)C1O (stereo not drawn)
T/C (endpoint: mean survival time, dose: 12.5 mg/kg/injection, schedule: Q01DX009 (ip), vehicle: saline): 86 % of control
T/C (endpoint: mean survival time, dose: 25.0 mg/kg/injection, schedule: Q01DX009 (ip), vehicle: saline): 93 % of control
T/C [1]: 93 % of control
T/C (endpoint: mean survival time, dose: 62.0 mg/kg/injection, schedule: Q01DX Z (ip), vehicle: carboxymethylcellulose (CMC)): 97 % of control
T/C [6]: 98 % of control
T/C (endpoint: mean survival time, dose: 125.0 mg/kg/injection, schedule: Q01DX Z (ip), vehicle: carboxymethylcellulose (CMC)): 102 % of control
T/C (endpoint: mean survival time, dose: 200.0 mg/kg/injection, schedule: Q01DX009 (ip), vehicle: saline): 92 % of control
T/C (endpoint: mean survival time, dose: 250.0 mg/kg/injection, schedule: Q01DX Z (ip), vehicle: carboxymethylcellulose (CMC)): 100 % of control
T/C [3]: 98 % of control
T/C (endpoint: mean survival time, dose: 500.0 mg/kg/injection, schedule: Q01DX Z (ip), vehicle: carboxymethylcellulose (CMC)): 96 % of control
T/C (endpoint: median survival time, dose: 62.5 mg/kg/injection, schedule: Q01DX009 (ip), vehicle: saline): 94 % of control and 100 % of control
T/C (endpoint: median survival time, dose: 125.0 mg/kg/injection, schedule: Q01DX009 (ip), vehicle: saline): 100 % of control
T/C (endpoint: median survival time, dose: 250.0 mg/kg/injection, schedule: Q01DX009 (ip), vehicle: saline): 88 % of control and 100 % of control
T/C (endpoint: median survival time, dose: 500.0 mg/kg/injection, schedule: Q01DX009 (ip), vehicle: saline): 88 % of control

CC(=O)Oc1ccccc1N(C(C)=O)S(=O)(=O)c1ccc(C)cc1
T/C (endpoint: mean survival time, dose: 50.0 mg/kg/injection, schedule: Q04DX003 (ip), vehicle: saline): 98 % of control
T/C [2]: 106 % of control
T/C [7]: 101 % of control
T/C (endpoint: mean survival time, dose: 200.0 mg/kg/injection, schedule: Q01DX001 (ip), vehicle: saline): 108 % of control
T/C [8]: 101 % of control
T/C (endpoint: mean survival time, dose: 400.0 mg/kg/injection, schedule: Q01DX001 (ip), vehicle: saline): 100 % of control

O=P(OCc1ccccc1)(N(CCCl)CCCl)N1CCN(P(=O)(OCc2ccccc2)N(CCCl)CCCl)CC1 (stereo not drawn)
T/C (endpoint: mean survival time, dose: 128.0 mg/kg/injection, schedule: Q01DX Z (ip), vehicle: saline): 104 % of control
T/C (endpoint: mean survival time, dose: 256.0 mg/kg/injection, schedule: Q01DX Z (ip), vehicle: saline): 107 % of control
T/C (endpoint: mean survival time, dose: 512.0 mg/kg/injection, schedule: Q01DX Z (ip), vehicle: saline): 113 % of control

O=C(CC(O)(C(F)(F)F)C(F)(F)F)c1ccc(C(=O)CC(O)(C(F)(F)F)C(F)(F)F)cc1
T/C (endpoint: mean survival time, dose: 12.5 mg/kg/injection, schedule: Q01DX009 (ip), vehicle: other): 105 % of control
T/C (endpoint: mean survival time, dose: 25.0 mg/kg/injection, schedule: Q01DX009 (ip), vehicle: other): 105 % of control
T/C (endpoint: mean survival time, dose: 50.0 mg/kg/injection, schedule: Q01DX009 (ip), vehicle: other): 113 % of control
T/C (endpoint: mean survival time, dose: 100.0 mg/kg/injection, schedule: Q04DX003 (ip), vehicle: other): 113 % of control
T/C (endpoint: mean survival time, dose: 200.0 mg/kg/injection, schedule: Q04DX003 (ip), vehicle: other): 105 % of control

O=S1(=O)CC(Cl)C(Cl)C1 (stereo not drawn)
T/C (endpoint: mean survival time, dose: 50.0 mg/kg/injection, schedule: Q04DX003 (ip), vehicle: alcohol): 105 % of control

O=c1oc(-c2ccc([N+](=O)[O-])cc2)nc2cc(Cl)ccc12
T/C [4]: 97 % of control
T/C [5]: 108 % of control
T/C [9]: 103 % of control

Cc1c(N=O)c(-c2ccccc2)n(O)[n+]1[O-]
T/C (endpoint: mean survival time, dose: 50.0 mg/kg/injection, schedule: Q01DX009 (ip), vehicle: Klucel (hydroxypropylcellulose) (HPC)): 104 % of control
T/C (endpoint: mean survival time, dose: 100.0 mg/kg/injection, schedule: Q01DX009 (ip), vehicle: Klucel (hydroxypropylcellulose) (HPC)): 104 % of control
T/C (endpoint: mean survival time, dose: 200.0 mg/kg/injection, schedule: Q01DX009 (ip), vehicle: Klucel (hydroxypropylcellulose) (HPC)): 101 % of control

C=CCOCC(O)CN1CCCCC1 (stereo not drawn)
T/C [1]: 116 % of control
T/C [6]: 96 % of control

CC1OC(n2ccc(=O)[nH]c2=O)C2OC(C)(C)OC2C1=O (stereo not drawn)
T/C (endpoint: median survival time, dose: 12.5 mg/kg/injection, schedule: Q01DX005 (ip), vehicle: saline with Tween-80): 109 % of control
T/C (endpoint: median survival time, dose: 25.0 mg/kg/injection, schedule: Q01DX005 (ip), vehicle: saline with Tween-80): 97 % of control
T/C (endpoint: median survival time, dose: 50.0 mg/kg/injection, schedule: Q01DX005 (ip), vehicle: saline with Tween-80): 97 % of control
T/C (endpoint: median survival time, dose: 100.0 mg/kg/injection, schedule: Q01DX005 (ip), vehicle: saline with Tween-80): 101 % of control
T/C (endpoint: median survival time, dose: 200.0 mg/kg/injection, schedule: Q01DX005 (ip), vehicle: saline with Tween-80): 101 % of control

NC(=S)c1ccc(C(N)=S)cc1
T/C (endpoint: mean survival time, dose: 100.0 mg/kg/injection, schedule: Q01DX001 (ip), vehicle: Klucel (hydroxypropylcellulose) (HPC)): 89 % of control
T/C [5]: 94 % of control
T/C (endpoint: mean survival time, dose: 100.0 mg/kg/injection, schedule: Q04DX003 (ip), vehicle: saline with Tween-80): 97 % of control
T/C (endpoint: mean survival time, dose: 200.0 mg/kg/injection, schedule: Q01DX001 (ip), vehicle: Klucel (hydroxypropylcellulose) (HPC)): 89 % of control
T/C [9]: 93 % of control
T/C (endpoint: mean survival time, dose: 200.0 mg/kg/injection, schedule: Q04DX003 (ip), vehicle: saline with Tween-80): 97 % of control
T/C (endpoint: mean survival time, dose: 400.0 mg/kg/injection, schedule: Q01DX009 (ip), vehicle: saline with Tween-80): 90 % of control
T/C (endpoint: mean survival time, dose: 400.0 mg/kg/injection, schedule: Q04DX003 (ip), vehicle: saline with Tween-80): 98 % of control

CC(C(=O)O)C(C(=O)O)C(=O)O (stereo not drawn)
T/C [7]: 93 % of control
T/C [8]: 96 % of control
